From patent US6525017B1, “Using glutathiane to protect neurons from injury” (The Children's Medical Center Corporation, priority 1989, dated 2003)

Legend:
Type in all cases: cell-based
NMDA receptor [1] = assay: Whole-cell NMDA responses in isolated rat retinal ganglion cells
Method: The third central neuronal preparation in which the effects of oxidation and reduction on NMDA responses were tested was the isolated rat retinal ganglion cell. Postnatal retinal ganglion cells were identified and cultured as described in Lipton et al., supra. Physiological solutions and experimental protocol were the same as described for cortical neurons (Example 2), except that TTX was excluded from the extracellular fluid, since whole-cell recordings were performed on neurons that were solitary and had no apparent connections to other cells and no spontaneous action potentials.
These cells have well-characterized, albeit small, NMDA responses. Treatment with 2 mM DTT (1-3 min) produced potentiation of the response elicited by 200 μM NMDA and 1 μM glycine (250%±130% of control; range, 220%-320%). […] Glycine (1 μM) potentiation of NMDA (200 μM) responses occurred in both the reduced and the oxidized states. […] The effects of reduction and oxidation could be repeated in alternating fashion in these cells for as long as the recording remained stable.

nicotinic receptor = assay: Nicotinic receptor function in intact chick retina
Method: Eyecups were obtained from 2-to 5-day-old chicks and continuously superfused at 20-25° C. at a rate of 8 ml/min with Tyrodes solution (130 mM NaCl, 3 mM KCl, 17 mM dextrose, 20 mM NaHCO3, 0.01% w/v phenol red; bubbled with a gas mixture of 95% O2 and 5% CO2) containing 5 mM MgCl2 to reduce synaptic activity. […] Traces were triggered by the opening of two solenoid valves that shunted approximately 200 μl of agonist (1, 1-dimethyl-4-phenyl-piperazinium iodide, DMPP or NMDA) into the perfusion line, Agonists reached the preparation approximately 7s later. The resulting responses originated, at least in part, in the retinal ganglion cells. Some experiments were performed in the presence of 10 μg/ml catalase and 1 μg/ml superoxide dismutase. Antagonists, reducing agents, or oxidizing agents were introduced directly via the perfusate.
The action of DTT lasted for tens of minutes after the reducing agent was removed; any small decrement in the potentiation could be reversed with additional DTT treatment. The function of the nicotinic receptors was restored upon oxidation with 0.1-1.0 mM DTNB (applied for 5 min). […] The reduction and oxidation effects could be alternated repeatedly for as long as the preparation remained stable, which was often more than 9 hr.

NMDA receptor [2] = assay: Whole-cell patch-clamp NMDA responses in cultured rat cortical neurons
Method: The effects of reduction and oxidation on the NMDA response were further examined in cultured mammalian central neurons with the use of patch electrodes. Experiments were performed on neurons in primary cultures of CD rat neocortex derived from embryonic day 16 fetuses and plated onto glass coverslips coated with collagen and poly-L-lysine. The growth medium consisted of a v/v mixture of 80% DMEM (Sigma D5530), 10% F-12 (Sigma), 10% heat-inactivated, iron-supplemented serum (Hyclone), with 25 mM HEPES, 24 U/ml penicillin, and 24 μg/ml streptomycin, supplemented to 2 mM glutamine. Recordings were performed on 3- to 13-week-old cultures, and neurons studied ranged from 12 to 18 μm in diameter. The extracellular solution for the physiological experiments contained 137 mM NaCl, 1 mM NaHCO3, 0.34 mM NaHPO4, 5.36 mM KCl, 0.44 mM KH2PO4, 2.5 mM CaCl2, 5 mM HEPES-NaOH, 22.2 mM dextrose, 0.001% (v/v) phenol red, adjusted to pH 7.2 with 0.3 N NaOH (no added magnesium, except where noted). Tetrodotoxin (TTX) (1 μM) was routinely added to reduce synaptic activity. The intracellular (pipette) solution contained 120 mM CsCl, 20 mM TEA-Cl, 2 mM MgCl2, 1 mM CaCl2, 1.5-2.25 mM EGTA, and 10 mM HEPES-NAOH, adjusted to pH 7.2 with concentrated TEA-OH. Electrophysiological measurements were performed at 33° C.-35° C. with patch electrodes (4-8 MΩ), essentially as described in Lipton et al. J. Physiol 385:361, 1987. Lipton et al. 1987 includes the following disclosure of electrophysiological recordings by patch clamp from solitary neurons:
“. . . patch-clamp recordings were made . . . following the methods of Hamill et al. (1981) using an EPC-7 amplifier (List Electronic, Darmstadt, F.R.G.). Patch electrodes had resistances of 3-5 MΩ when filled with Na^+ or K^+ saline. Patch electrodes were used to record whole-cell currents under voltage clamp as well as single-channel currents from patches of membrane excised from the cell. The indifferent electrode was a Ag-AgCl wire connected to the culture dish via an agarose bridge. Holding and command potentials (VH and Vc, respectively (were generated by a digital-to-analog converter (Cheshire Data, Hamden, Conn., U.S.A.) interfaced with a PDP 11/23 or 11/73 computer (Digital Equipment Corp., Maynard, Mass., U.S.A.). Data collection was also controlled by the computer; data were sampled and digitized with a 12-bit, 125 kHz analog-to-digital converter (Data Translation, Marlboro, Mass., U.S.A., Model DT2782DMA) and viewed on a Hewlett-Packard digital display (Model 1345A). The sampling rate was set at 10 μs to 50 ms depending on the level of analysis. Using the amplifier test circuit, the digitized data were accurate to within 1%. The signals were low-pass filtered at a setting appropriate to the sampling frequency (Ithaco, Ithaca, N.Y., U.S.A., Model 4302 with a Bessel frequency cut-off characteristic of 48 dB/octave). Leakage currents and liquid junction potentials were corrected as described in Fenwick, Marty & Neher [J. Physiol. 331:577-597] (1982a). Using the EPC-7 circuit, analog compensation of the series resistance was applied. This ensured a relatively small error due to the voltage drop across the series resistance (less than or equal to that calculated by Marty & Neher, 1985 [J. Physiol. 367:117-141]). Data were stored on a 30 megabyte Winchester disk (Data Systems Design, San Jose, Calif., U.S.A., Model 880). […]

SMILES	NMDA response, % of control (potentiation) (NMDA receptor [1]; 200 μM NMDA + 1 μM glycine, 2 mM DTT 1-3 min, mean ± spread)	NMDA response, % of control, range (NMDA receptor [1]; 200 μM NMDA + 1 μM glycine, 2 mM DTT 1-3 min, range)	nicotinic receptor function after reduction (nicotinic receptor; DTT 1-2 mM applied for 10-25 min)	voltage-clamped NMDA response, % of control (potentiation) (NMDA receptor [2]; 10-100 μM NMDA + 1 μM glycine, 1-5 min treatment with 0.5-2.0 mM DTT, mean ± spread)	voltage-clamped NMDA response, % of control, range (NMDA receptor [2]; 10-100 μM NMDA + 1 μM glycine, 1-5 min treatment with 0.5-2.0 mM DTT, range)	NMDA response on reapplication of DTT after oxidation (NMDA receptor [2]; after DTNB oxidation)	decrement of the native NMDA response (NMDA receptor [1]; 0.1-0.2 mM DTNB, mean ± spread)	decrement of the native NMDA response, range (NMDA receptor [1]; 0.1-0.2 mM DTNB, range)	nicotinic receptor function upon oxidation (nicotinic receptor; 0.1-1.0 mM DTNB applied for 5 min, after DTT)	decrease of NMDA response (NMDA receptor [2]; 1-3 min treatment with 0.1-1.0 mM DTNB, mean ± spread)	decrease of NMDA response, range (NMDA receptor [2]; 1-3 min treatment with 0.1-1.0 mM DTNB, range)
O[C@@H](CS)[C@@H](O)CS [DTT, dithothreitol]	250%±130%	220%-320%	blocks nicotinic receptor function	250%±140%	220%-330%	always restored the NMDA response to greater than control levels	–	–	–	–	–
O=C(O)c1cc(SSc2ccc([N+](=O)[O-])c(C(=O)O)c2)ccc1[N+](=O)[O-] [DTNB, 5′-5′-dithiobis-2-nitrobenzoic acid]	–	–	–	–	–	–	49.4%±9.4%	37%-60%	restored	22.9%±12.9%	0%-39.5%
